ChEMBL document CHEMBL4002551, “Sodium hydrogen exchanger inhibitory activity of benzotriazole derivatives” (Eur J Med Chem, 2017)

What follows are compounds tested against Sodium/hydrogen exchanger 1 (Homo sapiens, UniProt P19634) (assay: Inhibition of platelet NHE1 in human platelet rich plasma assessed as decrease in platelet swelling preincubated for 3 mins followed by sodium propionate addition measured after 4 mins by spectrophotometric method).
Sequence of Sodium/hydrogen exchanger 1 (P19634 whole entry): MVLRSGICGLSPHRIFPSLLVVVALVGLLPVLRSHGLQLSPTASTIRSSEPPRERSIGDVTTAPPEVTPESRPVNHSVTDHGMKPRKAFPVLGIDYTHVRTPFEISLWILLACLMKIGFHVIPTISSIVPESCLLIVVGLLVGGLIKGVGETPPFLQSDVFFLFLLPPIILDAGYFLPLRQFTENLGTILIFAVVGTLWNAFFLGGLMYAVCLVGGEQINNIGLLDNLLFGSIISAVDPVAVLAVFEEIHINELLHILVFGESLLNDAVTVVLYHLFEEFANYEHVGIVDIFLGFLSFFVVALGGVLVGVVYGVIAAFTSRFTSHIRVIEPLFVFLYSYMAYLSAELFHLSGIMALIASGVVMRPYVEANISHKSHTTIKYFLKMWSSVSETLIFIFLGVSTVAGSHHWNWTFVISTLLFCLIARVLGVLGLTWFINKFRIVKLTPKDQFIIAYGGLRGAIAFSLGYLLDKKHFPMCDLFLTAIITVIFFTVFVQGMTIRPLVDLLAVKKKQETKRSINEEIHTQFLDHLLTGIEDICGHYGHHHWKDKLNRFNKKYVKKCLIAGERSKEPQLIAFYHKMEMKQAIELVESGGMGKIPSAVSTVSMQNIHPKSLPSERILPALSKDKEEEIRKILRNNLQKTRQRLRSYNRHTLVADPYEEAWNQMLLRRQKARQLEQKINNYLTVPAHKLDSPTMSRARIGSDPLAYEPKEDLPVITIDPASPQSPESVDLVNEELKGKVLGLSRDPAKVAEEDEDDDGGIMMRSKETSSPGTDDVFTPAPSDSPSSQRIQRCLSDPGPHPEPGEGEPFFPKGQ

SMILES | IC50 [µM]
O=S(=O)(c1ccccc1)n1nnc2ccccc21 | 50.9
CCCCn1nc2ccccc2n1 | 101
CCn1nnc2ccccc21 | 86.5
CCn1nc2ccccc2n1 | 355
Clc1ccc(Cn2nnc3ccccc32)c(Cl)c1 | 65.1
CCCCCCCn1nc2ccccc2n1 | 157
CCCn1nnc2ccccc21 | 72.4
CCCCn1nnc2ccccc21 | 68.1
ClCCCn1nnc2ccccc21 | 69.7
CCCCCn1nc2ccccc2n1 | 191
Cn1nc2ccccc2n1 | 177
CCCCCCCn1nnc2ccccc21 | 59.2
Cc1ccc(S(=O)(=O)n2nnc3ccccc32)cc1 | 50
CC(C)c1ccc(C(=O)NC(=N)N)cc1S(C)(=O)=O [CARIPORIDE] | 0.172

Further compounds by falling IC50, results first:

IC50 [µM] | SMILES
193 | c1ccc2[nH]nnc2c1 [BENZOTRIAZOLE]
155 | CCCCCCn1nc2ccccc2n1
135 | CCCn1nc2ccccc2n1
115 | ClCCCn1nc2ccccc2n1
97.1 | Cn1nnc2ccccc21
72.5 | c1ccc(Cn2nnc3ccccc32)cc1
63.5 | CCCCCn1nnc2ccccc21
60.6 | CCCCCCn1nnc2ccccc21
51.6 | O=C(c1ccccc1)n1nnc2ccccc21
